From US12305171B2, “Compositions and methods for treating cancer” (bioAffinity Technologies, Inc., priority 2018, dated 2025)
Like-named read-outs stand apart in the source and are kept apart here.

Experiments:
Assay in all cases: doxorubicin cell viability, CTG assay
Assay type in all cases: cell-based
A172 = conditions: Homo sapiens, A 172, 96 h
Procedure: (§1) A172 and HCC15 cells were plated at 1200 cells/well in a 96 well plate. The next day, cells were treated with doxorubicin at the indicated concentrations. Four days after doxorubicin treatment was initiated, the cells were assayed for viability using the CTG assay. The dashed line indicates the non-linear fitting of the data to calculate an IC50 value.
(§2) A172 and HCC15 cells were plated at 1200 cells/well in a 96 well plate. The next day, cells were treated with doxorubicin at the indicated concentrations. Four days after the doxorubicin exposure was initiated, the cells were assayed for viability using the CTG assay. […] After incubating the cells with the CTG reagent, ATP levels can be indirectly measured as light production using the TECAN luminescence plate reader. As a first step, toxicity of a known chemotherapeutic drug, doxorubicin, was assayed on the cell lines of interest. Doxorubicin was used as a positive control for cell toxicity in our assay.
(§3) The cells lines were plated at 1,000 to 4,000 cells/well in a 96-well plate and treated with doxorubicin the following day. CTG activity was measured 4 days after treatment. IC50 values were calculated by GraphPad Prism Software.

HCC15 = conditions: 96 h
Procedure: as §1, §2, §3

NCI-H460 = conditions: Homo sapiens, 96 h; NCI-H460, Lung; CTG 4 days after treatment
Procedure: as §2, §3

GM05659 = conditions: 96 h; GM05659, Other; CTG 4 days after treatment
Procedure: as §2, §3

HEK293 = conditions: Homo sapiens, 96 h; HEK293, Other; CTG 4 days after treatment
Procedure: as §2, §3

MDA-MB-435S = conditions: Homo sapiens, 96 h, Melanoma, CTG 4 days after treatment
Procedure: as §2, §3

DU145 = conditions: Homo sapiens, DU-145, 96 h; DU145, Prostate; CTG 4 days after treatment
Procedure: as §2, §3

U251 = conditions: Homo sapiens, U-251, 96 h; U251, Glioblastoma; CTG 4 days after treatment
Procedure: as §2, §3

PC3 = conditions: Homo sapiens, PC-3, 96 h; PC3, Prostate; CTG 4 days after treatment
Procedure: as §2, §3

`COc1cccc2c1C(=O)c1c(O)c3c(c(O)c1C2=O)C[C@@](O)(C(=O)CO)C[C@@H]3O[C@H]1C[C@H](N)[C@H](O)[C@H](C)O1` [doxorubicin] gave an IC50 (A172; A172, Glioblastoma, CTG 4 days after treatment, read-out: IC50) of 132 nM, an IC50 (A172; A172 cells, CTG four days after exposure, read-out: IC50 of doxorubicin treatment) of 132 nM and an IC50 (HCC15; HCC15, Lung, CTG 4 days after treatment, read-out: IC50) of 167 nM. The IC50 (HCC15; HCC15 cells, CTG four days after exposure, read-out: IC50 of doxorubicin treatment) was 167 nM, the IC50 (NCI-H460) was 56 nM and the IC50 (GM05659) was 267 nM. For the same compound, the IC50 (HEK293) was 29 nM, the IC50 (MDA-MB-435S) was 325 nM and the IC50 (DU145) was 248 nM. It also gave an IC50 (U251) of 24 nM and an IC50 (PC3) of 387 nM.
